Test results reported in paper PMC10127268, “Rational Design of Phosphorylation-Responsive Coiled Coil-Peptide Assemblies” (ACS Synthetic Biology, 2023).
Read-outs that look alike come from different tables or passages of the source.

Columns and labels:
[1] = CD spectroscopy, helicity at 5 °C; assay type: physicochemical; settings: PBS pH 7.4, 10 μM individual peptide
Procedure: (§1) CD spectra and thermal denaturation curves were obtained using a JASCO J810 or 815 spectropolarimeter fitted with a Peltier temperature controller. CD spectra (260 to 190 nm, with 1 nm step size, 100 nm.min^–1 scanning speed, 1 nm bandwidth and 1 s response time) were measured in PBS (137 mM NaCl, 2.7 mM KCl, and 10 mM phosphate buffer, pH 7.4) at 5 °C in quartz cuvettes. Thermal denaturation experiments were performed using 10 μM individual peptide concentration in a 5 mm cuvette. For thermal denaturation experiments, the CD signal at 222 nm was recorded at 1 °C intervals upon heating from 5 to 95 °C at a rate of 40 or 60 °C/h (1 nm interval, 1 nm bandwidth, 16 s response time). Data was buffer subtracted, and then normalized for peptide concentration, number of amide bonds present, and cuvette path length to give the mean residue ellipticity (MRE). Midpoints of thermal denaturation were calculated using the second derivative of the corresponding thermal denaturation curve. Fraction helix (%) was calculated using the following equation (where MREcoil = 640 – 45T; T, temperature (°C); n, number of amide bonds in sample including C-terminal amide):[68] [drawing 2]

[2] = Thermal denaturation monitored by CD (MRE222), midpoint TM; assay type: physicochemical; settings: for TM (°C), midpoint of thermal unfolding: CD at 222 nm, 5 to 95 °C, PBS pH 7.4, 10 μM individual peptide; for folding and thermal stability by CD, in words: PBS pH 7.4, 10 µM individual peptide
Procedure: as §1

[3] = even at 100 μM; cited from earlier work
[4] = CD, PBS pH 7.4, 10 μM individual peptide; ref 5 (Edgell et al., 2020); cited from earlier work
Procedure: page 28: Table S4. Biophysical parameters for switchable peptides and complexes. Peptide(s) Helicity at 5 °C (%)a TM (°C) CC-Tet-A 37b < 20b CC-Tet-B 37b < 20b CC-Tet-A-S14 23 < 20 CC-Tet-A-S7 29 < 20 CC-Tet-A-S21 25 < 20 CC-Tet-B-RRXS14 26 < 20 CC-Tet-A + B 87b > 95b CC-Tet-A-S14 + B-RRXS14 67 62 CC-Tet-A-S7 + B-RRXS14 70 66 CC-Tet-A-S21 + B-RRXS14 81 72 apCC-Tet-A-S10 48 < 20 apCC-Tet-A-S17 42 < 20 apCC-Tet-B-S20 40 < 20 apCC-Tet-B-RRXS13 39 < 20 apCC-Tet-B-RRXS20 38 < 20 apCC-Tet-A-S10 + B-S20 93 > 95 apCC-Tet-A-S10 + B-RRXS20 80 75 apCC-Tet-A-S17 + B-RRXS13 84 72 apCC-Tet-A-S17 + B-RRXS20 ...

CC-Tet-A-S14 [5] = assay: Isothermal titration calorimetry (ITC) of CC-Tet-B-RRXS14 into CC-Tet-A-S14; assay type: binding; settings: 200 μM CC-Tet-B-RRXS14 into 20 μM CC-Tet-A-S14, PBS, 37 °C, heterodimer model, global fit n = 3, read-out: observable KD (concentration at which the complex is half folded)
Procedure: To model the disassembly of the A2B2 complex into the unfolded peptides A and B, we needed to determine the dissociation constant (KD) and use this to estimate the forward and reverse rate constants, koff and kon (Figure 5). To do this, we used isothermal titration calorimetry (ITC), titrating CC-Tet-B-RRXS14 into 20 μM CC-Tet-A-S14 at 37 °C, and the heat released upon binding was measured. […] We contend that this sub-μM KD—which is consistent with our CD measurements (Figure S30)—is close to ideal for use in synthetic biology systems in cells and in vitro, as functioning at μM concentrations leaves the system poised in a folded state, but close to unfolding, rendering it receptive to phosphorylation-induced switching.
Peptides were dissolved in PBS buffer to a concentration around 1 mM and a volume of 1 mL. Samples were then individually dialyzed into 1.5 L of PBS with gentle stirring overnight using a Mini Dialysis Kit (Cyvita) with a 1 kDa membrane cut off. Sample concentration was subsequently remeasured to account for changes in volume because of diffusion during dialysis. […]
To analyze the data, NITPIC, SEDPHAT, and GUSSI were used.[72]−[74] […] Following this, experiments were analyzed using SEDPHAT, which allowed correction of concentration deviations and outlier injection exclusion, after which data was fitted to a heterodimer model (as no heterotetramer model was available). […]

[6] = Sedimentation-velocity analytical ultracentrifugation; assay type: physicochemical; settings: PBS pH 7.4, 20 °C, 70 μM of each peptide for mixtures
Procedure: Sedimentation-velocity (SV) experiments were conducted at 20 °C in a Beckman-Optima XL-I analytical ultracentrifuge using an An-60 Ti rotor. Samples were prepared in PBS at 140 μM total peptide concentration. Samples were centrifuged at a speed of 50,000 or 60,000 rpm. The partial specific volume (v̅) for each peptide was calculated and data sets were fitted to a single, ideal species model using SEDFIT. Sedimentation-equilibrium (SE) experiments were conducted at 20 °C in a Beckman-Optima XL-I analytical ultracentrifuge using an An-50 Ti rotor. Samples were prepared in PBS at 70 μM total peptide concentration. Samples were centrifuged at a range of speeds from 18,000–39,000 rpm with defined intervals, and 8 h between subsequent scans. Data sets were analyzed using SEDPHAT.

apCC-Tet-A-S17 = target: T1, apCC-Tet-A-S17 (N-terminal acetyl; C-terminal amide); assay: circular dichroism (Job plot); fraction helix at different ratios of the two peptides, total peptide concentration 20 μM, PBS pH 7.4; settings: both partners purified
T1 chain: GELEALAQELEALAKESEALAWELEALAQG

CC-Tet-A-S14 [7] = target: T2, CC-Tet-A-S14 (N-terminal acetyl; C-terminal amide); assay: ITC; 200 μM CC-Tet-B-RRXS14 injected into 20 μM CC-Tet-A-S14, 37 °C, PBS; fitted to a heterodimer model, global fit of three experiments; observable (apparent) KD; settings: both partners purified
T2 chain: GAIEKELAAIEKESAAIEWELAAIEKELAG

CC-Tet-A-S14 [8] = target: T2, CC-Tet-A-S14; assay: kinetic model fitted to the CD phosphorylation time course; ordinary differential equations (Berkeley Madonna); koff and kon optimised with K_D(T) held at 3.18 × 10^-19 M^3; tetramer A2B2 to unfolded peptides A and B; 37 °C, 10 μM of each peptide; settings: both partners purified

Ac-G AIEK ESAAIEK ELAAIEW ELAAIEK ELA G-NH2 [CC-Tet-A-S7, CC-Tet-A variant with Ser at position 7]
Helicity at 5 °C (%) [1]: 29% | TM (°C), midpoint of thermal unfolding [2]: < 20 °C

Ac-G KLKALAQ KRRASAK KLKALAW KLKALAQ G-NH2 [apCC-Tet-B-RRXS13, basic antiparallel peptide with PKA site, Ser at position 13]
Helicity at 5 °C (%) [1]: 39% | TM (°C), midpoint of thermal unfolding [2]: < 20 °C

Ac-G AIKQ KLAAIKQ KLAAIKW KLAAIKQ KLA G-NH2 [CC-Tet-B, basic peptide of the previously published parallel heterotetramer CC-Tet-A2B2]
self-association of individual peptide [3]: do not self-associate | TM (°C), midpoint of thermal unfolding [4]: < 20 °C

Ac-G KLKALAQ KLKALAK KRRASAW KLKALAQ G-NH2 [apCC-Tet-B-RRXS20, basic antiparallel peptide with PKA site, Ser at position 20]
Helicity at 5 °C (%) [1]: 38% | TM (°C), midpoint of thermal unfolding [2]: < 20 °C

Ac-G AIKQ KLAAIRR KSAAIKW KLAAIKQ KLA G-NH2 [CC-Tet-B-RRXS14, basic parallel peptide with PKA site R-R-X-S, Ser at position 14]
Helicity at 5 °C (%) [1]: 26% | Kd (CC-Tet-A-S14 [5]): 542 nM | TM (°C), midpoint of thermal unfolding [2]: < 20 °C

Ac-G KLKALAQ KLKALAK KLKASAW KLKALAQ G-NH2 [apCC-Tet-B-S20, basic antiparallel peptide with Ser at position 20]
Helicity at 5 °C (%) [1]: 40% | TM (°C), midpoint of thermal unfolding [2]: < 20 °C

Ac-G AIEK ELAAIEK ELAAIEW ELAAIEK ELA G-NH2 [CC-Tet-A, acidic peptide of the previously published parallel heterotetramer CC-Tet-A2B2]
self-association of individual peptide [3]: do not self-associate | TM (°C), midpoint of thermal unfolding [4]: < 20 °C

Ac-G AIEK ELAAIEK ELAAIEW ESAAIEK ELA G-NH2 [CC-Tet-A-S21, CC-Tet-A variant with Ser at position 21]
Helicity at 5 °C (%) [1]: 25% | TM (°C), midpoint of thermal unfolding [2]: < 20 °C

Ac-G ELEALAQ ELEALAK ELEALAW ELEALAQ G-NH2 [apCC-Tet-A1, initial acidic antiparallel design]
oligomeric state from SV AUC (x monomer mass) [6]: 4.5 x monomer mass | folding and thermal stability by CD, in words [2]: stably folded

Ac-G ELEALAQ ESEALAK ELEALAW ELEALAQ G-NH2 [apCC-Tet-A-S10, acidic antiparallel peptide with Ser at position 10]
Helicity at 5 °C (%) [1]: 48% | TM (°C), midpoint of thermal unfolding [2]: < 20 °C

Ac-G KLKALAQ KLKALAK KLKALAW KLKALAQ G-NH2 [apCC-Tet-B1, initial basic antiparallel design]
oligomeric state from SV AUC (x monomer mass) [6]: 5.2 x monomer mass | folding and thermal stability by CD, in words [2]: stably folded

Ac-G AIEK ELAAIEK ESAAIEW ELAAIEK ELA G-NH2 [CC-Tet-A-S14, CC-Tet-A variant with Ser at position 14]
Helicity at 5 °C (%) [1]: 23% | TM (°C), midpoint of thermal unfolding [2]: < 20 °C

Ac-G ELEALAQ ELEALAK ESEALAW ELEALAQ G-NH2 [apCC-Tet-A-S17, acidic antiparallel peptide with Ser at position 17]
Helicity at 5 °C (%) [1]: 42% | TM (°C), midpoint of thermal unfolding [2]: < 20 °C

Ac-GKLKALAQKLKALAKKLKASAWKLKALAQG-NH2 [apCC-Tet-B-S20]
stoichiometry N (apCC-Tet-A-S17): 1

Ac-GAIKQKLAAIRRKSAAIKWKLAAIKQKLAG-NH2 [CC-Tet-B-RRXS14]
Kd (CC-Tet-A-S14 [7]): 542 nM | stoichiometry N (CC-Tet-A-S14 [7]): ~1 | koff (CC-Tet-A-S14 [8]): 0.0038 s⁻¹ | kon (CC-Tet-A-S14 [8]): 229000 M⁻¹ s⁻¹
